The values that follow are results of earlier work, collected in patent US20060008806A1, “Method for producing novel DNA sequence with biological activity” (University of Washington, priority 1986, published 2006).

Each structure is given as a SMILES string.

This data set concerns β-lactamases. Conditions: Labia, et al., 1979.

As for `CC1(C)S[C@@H]2[C@H](NC(=O)[C@H](N)c3ccccc3)C(=O)N2[C@H]1C(=O)O` [ampicillin], the Km is 31 µM.

On to `CC1(C)S[C@@H]2[C@H](NC(=O)Cc3ccccc3)C(=O)N2[C@H]1C(=O)O` [benzylpenicillin], for which the Michaelis-Menten constant (Km) is 21 µM.

Consider `CC1(C)S[C@@H]2[C@H](NC(=O)C(C(=O)O)c3ccccc3)C(=O)N2[C@H]1C(=O)O` (stereo partly drawn) [carbenicillin], for which the Km is 10 µM.

As a reminder, the Km is the concentration of substrate that gives half-maximal velocity.
